Measured values reported in patent US20190000868A1, “COMPOSITIONS COMPRISING 4'-O-GLUCURONIDE EPICATECHIN AND METHODS OF MAKING AND USING SUCH COMPOSITIONS” (NESTEC S.A., priority 2015, published 2019).

Tested on: endothelial nitric oxide synthase
Assay: eNOS phosphorylation (western blot) in isolated aortic rat rings
Assay type: cell-based
Design: dose or concentration left out as unconfirmed
Conditions: isolated thoracic aortic rings of male Wistar rats, incubated 1 h, FIG. 4
Description: Comparative experiments were conducted on the expression of endothelial nitric oxide synthase in isolated aortic rat rings.
Thoracic aortas were obtained from male adults Wistar rats after euthanasia. Each aorta was carefully dissected and harvested cleaned of excess tissue and cut into three equal segments, approximately 7 mm long. All aortic rings were pre-incubated for 30 min in Krebs solution (20 mM Hepes buffer, pH 7.4, containing 119 mM NaCl, 4.7 mM KCl, 1 mM MgSO4, 0.4 mM NaH2PO4, 0.15 mM Na2HPO4, 5 mM NaHCO3, 1.25 mM CaCl2, 5.5 mM glucose) aerated with 95% O2 and 5% CO2 at 37° C. and then incubated with vehicle (DMSO 1%) or the different metabolites for 1 h. Metabolites were first dissolved in DMSO 1% and tested in a final concentration […]. At the end of the incubation period aortic rings were frozen at −70° C. until the homogenate preparation. Homogenates for western blot and western blot determinations were carried out by the regular procedures and phosphorylation level of endothelial nitric oxide synthase was evaluated.

Which “phosphorylation level of endothelial nitric oxide synthase (p-eNOS vs eNOS total)” value does the source give for O=C(O)[C@H]1O[C@@H](Oc2ccc([C@H]3Oc4cc(O)cc(O)c4C[C@H]3O)cc2O)[C@H](O)[C@@H](O)[C@@H]1O [4′-O-glucuronide epicatechins, 4′-O-glucuronide epicatechin] here?
Its value is “increased eNOS phosphorylation relative to control and chemically similar epicatechins”.
